The subject of one data set is mice. Conditions: oral acute toxicity; ref Fan et al., 2022; Hu et al.; Zhang et al., 2015; Zuo et al., 2020; cited from earlier work.
For data set [1] the following is noted: broilers, cited from earlier work.
Data set [2] has as its system Mycoplasma pneumoniae strain M129 (ATCC 29342). Put plainly: Time-kill curves. Also noted: M. pneumoniae count in time-kill curve: unit not given here. In kind it is cell-based. How it is done: (§1) Mycoplasma pneumoniae strain M129 (ATCC 29342) was obtained from American Type Culture Collection (Manassas, VA, United States) and cultured at 37°C in the presence of 5% CO2 in the modified SP-4 liquid medium (pH 7.4) containing 2.1% (w/v) CM1166 mycoplasma broth base medium (Oxoid, Hants, United Kingdom), 20% (v/v) fetal bovine serum (FBS, Bioexplorer, CO, United States), 0.4% yeast extract (Oxoid), 0.55% (w/v) CMRL 1066 w/L-glutamine culture media powder (MyBioSource, San Diego, CA, United States), 1% D-glucose (Macklin) and 0.004% phenol red (Macklin). […] The solid medium is based on the above formula with the addition of 1% agar, and the characteristic fried egg-like colonies were used for experiments following incubation for 7 d on plates.
The tubes were incubated at 37°C in 5% CO2 for 72 h, and 200 µL of the culture was removed every 12 h for 10-fold serial dilutions. The diluted cultures were plated on plates for further culture and counted after 7 d. The experiment was repeated three times.

The test system is the same in data set [3]. The data set is described as follows: Susceptibility assay (broth microdilution MIC, MBC). In kind it is cell-based. How it is done:
as §1
The broth microdilution MIC procedure was performed according to standardized methods for microdilution susceptibility testing of mycoplasma species ([Waites et al., 2012]). […] The concentration of organisms should be determined to approximately 10^6 CFU/mL prior to inoculation into 96-well plates. Due to the action of phenol red, the acidic metabolites of microbial growth can turn the medium yellow. […] The MBC assays were performed based on MICs following endpoint reading and the liquid in the high-concentration wells was removed for bacterial counting.

Details of data set [4]: method as in Wang Y. et al., 2024; Zuo et al., 2020. The conditions noted are these: chickens, ref Wang Y. et al., 2024, Zuo et al., 2020, cited from earlier work.
The conditions of data set [5]: 2020, cited from earlier work; for AUC0-∞: ref Zuo et al.; for bioavailability: mice, ref Wang Y. et al., 2024, Zuo et al.
The test system of a further data set is M. pneumoniae. Details: method as in Eraikhuemen et al., 2021. The conditions noted are these: against M. pneumoniae; ref Eraikhuemen et al., 2021; cited from earlier work.

Values after ≈ are worked out from the molar mass of the structure shown. Where two headings read alike, the source gives them in different places.

What is called bioavailability is dose-corrected exposure relative to a reference, in per cent. What is called MBC is the smallest concentration meeting the test's criterion for killing. What is called MIC90 is an inhibitory concentration at the 90% level, which refers to growth in some studies and to a panel of isolates in others.

Take `C=C[C@]1(C)C[C@@H](OC(=O)CSc2nnc(N)s2)[C@]2(C)[C@H](C)CC[C@]3(CCC(=O)[C@H]32)[C@@H](C)[C@@H]1O` [ATTM, 14-o-[(2-amino-1,3,4-thiadiazol-5-yl)thioacetyl] mutilin]: in the data set on mice, the LD50 is recorded as 2,304.4 mg/kg. Further, the bioavailability was 75.29% in data set [1] (IM, ref Shang et al., 2018, Xianhui, 2010) and 72.03% in data set [1] (PO, ref Shang et al., 2018, Xianhui, 2010).

For `CN(C)[C@@H]1C(O)=C(C(N)=O)C(=O)[C@@]2(O)C(O)=C3C(=O)c4c(O)cccc4[C@@](C)(O)[C@H]3C[C@@H]12` [tetracycline], the “M. pneumoniae count in time-kill curve” value in data set [2] (1×MIC, time 0) is reported as 6.522; in data set [2] (1×MIC, time 12) it was 6.243; in data set [2] (1×MIC, time 24), 5.358; in data set [2] (1×MIC, time 36), 5.0751; in data set [2] (1×MIC, time 48) it was 3.623; in data set [2] (1×MIC, time 60) it was 4.011. The “M. pneumoniae count in time-kill curve” value was determined as 4.04 in data set [2] (1×MIC, time 72); 6.522 in data set [2] (2×MIC, time 0); 5.562 in data set [2] (2×MIC, time 12); 5.13 in data set [2] (2×MIC, time 24); 4.505 in data set [2] (2×MIC, time 36); 3.395 in data set [2] (2×MIC, time 48). Moreover, the “M. pneumoniae count in time-kill curve” value stood at 3.925 in data set [2] (2×MIC, time 60); 4.141 in data set [2] (2×MIC, time 72); 6.522 in data set [2] (4×MIC, time 0); 5.527 in data set [2] (4×MIC, time 12); 4.565 in data set [2] (4×MIC, time 24); 4.182 in data set [2] (4×MIC, time 36). Also, the “M. pneumoniae count in time-kill curve” value in data set [2] (4×MIC, time 48) is listed as 3.523; in data set [2] (4×MIC, time 60), 3.499; in data set [2] (4×MIC, time 72), 3.057; in data set [2] (8×MIC, time 0), 6.522; in data set [2] (8×MIC, time 12) it was 5.0382; in data set [2] (8×MIC, time 24) it was 4.431. Besides, the “M. pneumoniae count in time-kill curve” value in data set [2] (8×MIC, time 36) was 4.11; in data set [2] (8×MIC, time 48), 3.568; in data set [2] (8×MIC, time 60), 3.5; in data set [2] (8×MIC, time 72), 3.462; in data set [2] (16×MIC, time 0), 6.522; in data set [2] (16×MIC, time 12), 5.216. Also, the “M. pneumoniae count in time-kill curve” value in data set [2] (16×MIC, time 24) stood at 4.191; in data set [2] (16×MIC, time 36), 3.827; in data set [2] (16×MIC, time 48) it was 3.742; in data set [2] (16×MIC, time 60), 3.715; in data set [2] (16×MIC, time 72), 3.031; in data set [2] (32×MIC, time 0), 6.522. The “M. pneumoniae count in time-kill curve” value amounted to 4.677 in data set [2] (32×MIC, time 12); 4.038 in data set [2] (32×MIC, time 24); 3.597 in data set [2] (32×MIC, time 36); 3.571 in data set [2] (32×MIC, time 48); 3.497 in data set [2] (32×MIC, time 60); 3.078 in data set [2] (32×MIC, time 72). In addition, the “M. pneumoniae count in time-kill curve” value in data set [2] (64×MIC, time 0) came out at 6.522; in data set [2] (64×MIC, time 12) it was 4.323; in data set [2] (64×MIC, time 24), 4.306; in data set [2] (64×MIC, time 36) it was 3.779; in data set [2] (64×MIC, time 48), 3.079; in data set [2] (64×MIC, time 60), 3.41. Also, the “M. pneumoniae count in time-kill curve” value in data set [2] (64×MIC, time 72) is given as 3.079. For the same compound, the “reduction of bacterial counts” value in data set [2] (1–2×MIC, 72 h) is given as 2.38–2.48 log10 CFU/mL. The “concentration at which bactericidal effect was achieved” value in data set [2] (static time-kill, 72 h) was ≥ 4 × MIC. For the same compound, the MBC in data set [3] was 3.2 µg/mL (≈ 7.2 µM).

For `C=C[C@]1(C)C[C@@H](OC(=O)CSC(C)(C)CNC(=O)[C@H](N)C(C)C)[C@]2(C)[C@H](C)CC[C@]3(CCC(=O)[C@H]32)[C@@H](C)[C@@H]1O` [valnemulin], the bioavailability in data set [1] (IM, ref WANG et al., 2011) was 88.81%.

`C=C[C@]1(C)C[C@@H](OC(=O)CSc2ccccc2N)[C@]2(C)[C@H](C)CC[C@]3(CCC(=O)[C@H]32)[C@@H](C)[C@@H]1O` [amphenmulin, 22-(2-amino-phenylsulfanyl)-22-deoxypleuromutilin]: in the data set on mice, the LD50 was > 5,000 mg/kg. The bioavailability is 52.14% in data set [4] (IM), 5.88% in data set [4] (PO), 20.71% in data set [5] (IP) and 13.65% in data set [5] (PO). Further, the “AUC0-∞” value in data set [5] (intraperitoneal, at the same dose) was 2520 ng·h/mL; in data set [5] (intravenous, at the same dose as compound 16C) it was 12230 ng·h/mL; in data set [5] (oral, at the same dose), 1670 ng·h/mL.

Consider `C=C[C@]1(C)C[C@@H](OC(=O)CS[C@@H]2CC[C@@H](N)C[C@H]2O)[C@]2(C)[C@H](C)CC[C@]3(CCC(=O)[C@H]32)[C@@H](C)[C@@H]1O` [lefamulin], for which, in the data set with M. pneumoniae, the MIC90 is 0.006 µg/mL (≈ 0.0118 µM).

These data come from paper PMC11695783 (Frontiers in Pharmacology, 2024).
